Common to all, as to format: cell-based
Assay [1] addresses T1, human TLR7 (Homo sapiens, UniProt Q9NYK1).
T1 construct: host or cells: HEK-Blue cells
T1 sequence (Q9NYK1 27-1049): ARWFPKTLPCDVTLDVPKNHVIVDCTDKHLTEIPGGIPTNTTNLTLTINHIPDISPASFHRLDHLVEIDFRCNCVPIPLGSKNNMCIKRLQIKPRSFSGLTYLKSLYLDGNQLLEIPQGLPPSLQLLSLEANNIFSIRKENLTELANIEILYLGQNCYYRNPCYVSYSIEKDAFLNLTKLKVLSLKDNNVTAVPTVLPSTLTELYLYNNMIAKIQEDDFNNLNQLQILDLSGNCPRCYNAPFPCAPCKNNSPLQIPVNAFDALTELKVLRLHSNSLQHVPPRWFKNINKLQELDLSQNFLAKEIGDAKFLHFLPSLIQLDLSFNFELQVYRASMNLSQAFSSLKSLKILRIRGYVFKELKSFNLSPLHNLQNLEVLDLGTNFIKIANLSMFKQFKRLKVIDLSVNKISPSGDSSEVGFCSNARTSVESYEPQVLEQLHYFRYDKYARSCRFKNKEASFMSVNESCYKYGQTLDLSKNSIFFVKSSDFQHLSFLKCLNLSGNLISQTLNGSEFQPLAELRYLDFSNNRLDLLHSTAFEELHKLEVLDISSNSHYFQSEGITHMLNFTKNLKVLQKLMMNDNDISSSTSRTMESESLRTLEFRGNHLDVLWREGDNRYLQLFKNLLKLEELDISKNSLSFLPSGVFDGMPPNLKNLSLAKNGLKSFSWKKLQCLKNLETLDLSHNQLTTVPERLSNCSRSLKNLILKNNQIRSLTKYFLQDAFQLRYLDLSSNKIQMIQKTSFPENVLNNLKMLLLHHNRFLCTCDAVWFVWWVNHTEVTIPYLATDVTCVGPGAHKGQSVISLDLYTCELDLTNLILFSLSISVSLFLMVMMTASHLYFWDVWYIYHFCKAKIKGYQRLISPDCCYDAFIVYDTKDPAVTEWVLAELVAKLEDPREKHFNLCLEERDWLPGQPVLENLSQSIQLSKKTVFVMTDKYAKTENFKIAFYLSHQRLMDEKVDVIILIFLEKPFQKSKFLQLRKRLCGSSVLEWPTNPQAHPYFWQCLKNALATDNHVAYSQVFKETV
In words: TLR7 inhibition reporter assay (HEK-Blue, SEAP). Particulars: HEK-Blue cells overexpressing human TLR7, ligand gardiquimod 2.5 μM, 22 hour incubation. The procedure, abridged: (§1)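 HEK-Blue cells expressing human TLR7, TLR8 or TLR9 with NF-κB/AP-1-driven SEAP reporter; compounds 0.85 nM–50 μM, pre-treated 60 min. Stimulation: gardiquimod 2.5 μM (TLR7), R848 14.25 μM (TLR8), ODN2006 200 nM (TLR9); SEAP read after 22 h at 37 °C. Percent inhibition normalized between agonist+DMSO and known-inhibitor wells.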

The target of assay [2] is T2, human TLR8 (Homo sapiens, UniProt Q9NR97).
T2 construct: host or cells: HEK-Blue cells
T2 sequence (Q9NR97 27-1041): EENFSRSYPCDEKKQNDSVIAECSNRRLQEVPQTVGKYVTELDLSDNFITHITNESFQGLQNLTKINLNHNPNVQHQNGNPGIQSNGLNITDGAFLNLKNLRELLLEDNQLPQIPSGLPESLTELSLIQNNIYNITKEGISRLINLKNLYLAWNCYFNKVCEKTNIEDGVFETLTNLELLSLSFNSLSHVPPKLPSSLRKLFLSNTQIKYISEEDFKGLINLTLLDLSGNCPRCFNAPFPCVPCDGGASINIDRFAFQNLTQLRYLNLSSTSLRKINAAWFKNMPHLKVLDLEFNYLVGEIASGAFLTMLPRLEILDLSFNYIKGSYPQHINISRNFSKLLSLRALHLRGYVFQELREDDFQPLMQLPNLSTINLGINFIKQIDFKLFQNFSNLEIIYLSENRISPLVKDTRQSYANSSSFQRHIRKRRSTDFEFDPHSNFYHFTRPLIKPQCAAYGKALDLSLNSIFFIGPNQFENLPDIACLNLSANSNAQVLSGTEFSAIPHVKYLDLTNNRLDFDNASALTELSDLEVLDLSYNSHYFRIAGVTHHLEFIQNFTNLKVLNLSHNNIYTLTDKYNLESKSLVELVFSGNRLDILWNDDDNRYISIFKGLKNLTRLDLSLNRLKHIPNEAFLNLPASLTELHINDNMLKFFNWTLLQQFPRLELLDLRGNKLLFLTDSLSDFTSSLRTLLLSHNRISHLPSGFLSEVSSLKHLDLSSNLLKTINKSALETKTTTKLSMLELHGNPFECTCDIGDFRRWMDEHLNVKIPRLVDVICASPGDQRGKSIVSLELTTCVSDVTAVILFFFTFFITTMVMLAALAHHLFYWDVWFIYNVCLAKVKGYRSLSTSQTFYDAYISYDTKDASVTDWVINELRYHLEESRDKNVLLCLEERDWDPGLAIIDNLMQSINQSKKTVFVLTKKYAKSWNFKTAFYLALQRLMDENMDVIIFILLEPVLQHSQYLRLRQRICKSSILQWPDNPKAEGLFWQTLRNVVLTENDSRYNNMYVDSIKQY
In words: TLR8 inhibition reporter assay (HEK-Blue, SEAP). To be noted: HEK-Blue cells overexpressing human TLR8, ligand R848 14.25 μM, 22 hour incubation. The gist of the method:
as §1
On the technique in general: In a reporter assay the amount or activity of a reporter protein is the signal.

Assay [3] has as its target T3, human TLR9 (Homo sapiens, UniProt Q9NR96).
T3 construct: host or cells: HEK-Blue cells
T3 sequence (Q9NR96 26-1032): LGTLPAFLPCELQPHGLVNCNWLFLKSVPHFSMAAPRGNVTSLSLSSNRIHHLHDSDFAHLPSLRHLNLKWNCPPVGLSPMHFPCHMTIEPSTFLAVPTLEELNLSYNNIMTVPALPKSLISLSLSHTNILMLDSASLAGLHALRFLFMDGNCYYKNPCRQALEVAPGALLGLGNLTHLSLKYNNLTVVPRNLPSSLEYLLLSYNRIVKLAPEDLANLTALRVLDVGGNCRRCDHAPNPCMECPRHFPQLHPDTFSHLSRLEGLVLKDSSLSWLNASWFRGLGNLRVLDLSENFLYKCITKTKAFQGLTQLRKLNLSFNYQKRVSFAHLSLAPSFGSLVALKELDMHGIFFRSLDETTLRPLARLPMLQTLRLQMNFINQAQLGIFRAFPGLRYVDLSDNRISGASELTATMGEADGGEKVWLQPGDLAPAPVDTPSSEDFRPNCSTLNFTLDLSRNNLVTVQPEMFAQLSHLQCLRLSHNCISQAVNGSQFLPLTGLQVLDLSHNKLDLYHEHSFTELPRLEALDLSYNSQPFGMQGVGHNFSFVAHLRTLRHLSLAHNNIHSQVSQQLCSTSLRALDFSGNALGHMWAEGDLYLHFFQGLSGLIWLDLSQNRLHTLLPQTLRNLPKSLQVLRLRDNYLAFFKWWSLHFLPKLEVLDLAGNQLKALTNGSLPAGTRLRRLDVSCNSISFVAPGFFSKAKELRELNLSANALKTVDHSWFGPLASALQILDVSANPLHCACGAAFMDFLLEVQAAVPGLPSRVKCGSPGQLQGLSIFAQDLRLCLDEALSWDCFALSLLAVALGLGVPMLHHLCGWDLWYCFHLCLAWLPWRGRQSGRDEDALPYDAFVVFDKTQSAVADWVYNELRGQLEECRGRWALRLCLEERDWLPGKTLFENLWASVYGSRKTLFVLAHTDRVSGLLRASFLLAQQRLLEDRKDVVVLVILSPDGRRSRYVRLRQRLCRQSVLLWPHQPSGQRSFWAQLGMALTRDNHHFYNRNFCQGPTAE
Kind of assay: TLR9 inhibition reporter assay (HEK-Blue, SEAP). To be noted: HEK-Blue cells overexpressing human TLR9, ligand ODN2006 200 nM, 22 hour incubation. The gist of the method: as §1

Molecules are shown by their SMILES.

For the compound `COc1ccc(-c2nc3c(C)cc(C4CCN([C@H]5C[C@@H]6CN(C7CCC7)C[C@@H]6C5)CC4)nc3n2C)cc1OC` [Example 39, 5-(1-(2-cyclobutyloctahydrocyclopenta[c]pyrrol-5-yl)piperidin-4-yl)-2-(3,4-dimethoxyphenyl)-3,7-dimethyl-3H-imidazo[4,5-b]pyridine], the values for the 50% inhibitory concentration (IC50) in assay [1], in assay [2] and in assay [3] were 0.31 µM, 24 µM and 0.13 µM, respectively.

Consider `Cn1c(-c2ccc(S(C)(=O)=O)cc2)nc2ccc(C3CCN(C4CCN(C5CC5)CC4)CC3)nc21` [Example 19, 5-(1′-cyclopropyl-[1,4′-bipiperidin]-4-yl)-3-methyl-2-(4-(methylsulfonyl)phenyl)-3H-imidazo[4,5-b]pyridine], for which the 50% inhibitory concentration (IC50) is 18 µM in assay [1], over 25 µM in assay [2] and 0.87 µM in assay [3].

Consider `Cc1cc(C2CCN(C3CC4CCC(C3)N4C3CCOCC3)CC2)nc2c1nc(-c1ccc(S(C)(=O)=O)cc1)n2C` (single isomer, unassigned) [Example 35, 3,7-dimethyl-2-(4-(methylsulfonyl)phenyl)-5-(1-(8-(tetrahydro-2H-pyran-4-yl)-8-azabicyclo[3.2.1]octan-3-yl)piperidin-4-yl)-3H-imidazo[4,5-b]pyridine], for which the IC50 in assay [1] was 7.4 µM; in assay [2], over 50 µM; in assay [3], 0.34 µM.

As for `COc1cc(-c2nc3c(C)cc(C4CCN([C@H]5C[C@@H]6CN(CC7CC7)C[C@@H]6C5)CC4)nc3n2C)cn2ncnc12` [Example 43, 5-(1-((3aR,5s,6aS)-2-(cyclopropylmethyl)octahydrocyclopenta[c]pyrrol-5-yl)piperidin-4-yl)-2-(8-methoxy-[1,2,4]triazolo[1,5-a]pyridin-6-yl)-3,7-dimethyl-3H-imidazo[4,5-b]pyridine], the values for the IC50 in assay [1], in assay [2] and in assay [3] were 0.25 µM, over 50 µM and 0.052 µM, respectively.

On to `COc1ccc(-c2nc3ncc(C4CCN(C5CCN(C6CC6)CC5)CC4)cc3[nH]2)cc1OC` [Example 13, 6-(1′-cyclopropyl-[1,4′-bipiperidin]-4-yl)-2-(3,4-dimethoxyphenyl)-1H-imidazo[4,5-b]pyridine], for which the half-maximal inhibitory concentration (IC50) in assay [1] is over 25 µM; in assay [2] it was over 25 µM; in assay [3] it was 1.2 µM.

For `COc1ccc(-c2nc3ccc(-c4ccc(N5CCN(C(C)C)CC5)cc4)nc3n2C2CC2)cc1OC` [Example 55, 3-cyclopropyl-2-(3,4-dimethoxyphenyl)-5-(4-(4-isopropylpiperazin-1-yl)phenyl)-3H-imidazo[4,5-b]pyridine], the 50% inhibitory concentration (IC50) in assay [1] was 40 µM; in assay [2], over 50 µM; in assay [3] it was 1.4 µM.

Regarding `Cc1cc(C2CCN(C3CC4CCC(C3)N4C3CCC3)CC2)nc2c1nc(-c1ccc(S(C)(=O)=O)cc1)n2C` (stereo not drawn) [Example 33, 5-(1-(8-cyclobutyl-8-azabicyclo[3.2.1]octan-3-yl)piperidin-4-yl)-3,7-dimethyl-2-(4-(methylsulfonyl)phenyl)-3H-imidazo[4,5-b]pyridine], the IC50 was found to be 1.5 µM in assay [1], 19 µM in assay [2] and 0.069 µM in assay [3].

For the compound `Cc1cc(C2CCN(C3CCN(C(C)C)CC3)CC2)nc2c1nc(-c1ccc(S(C)(=O)=O)cc1)n2C` [Example 20, 5-(1′-isopropyl-[1,4′-bipiperidin]-4-yl)-3,7-dimethyl-2-(4-(methylsulfonyl)phenyl)-3H-imidazo[4,5-b]pyridine], the half-maximal inhibitory concentration (IC50) in assay [1] is 1.4 µM; in assay [2], over 50 µM; in assay [3], 0.025 µM.

`Cc1cc(-c2ccc(CN3CCC(N4CCCC4)CC3)cc2)nc2c1nc(-c1ccc(S(C)(=O)=O)cc1)n2C1CC1` [Example 2, 3-cyclopropyl-7-methyl-2-(4-(methylsulfonyl)phenyl)-5-(4-((4-(pyrrolidin-1-yl)piperidin-1-yl)methyl)phenyl)-3H-imidazo[4,5-b]pyridine]: the values for the half-maximal inhibitory concentration (IC50) in assay [1], in assay [2] and in assay [3] were 7.2 µM, 31 µM and 0.1 µM, respectively.

As for `Cc1cc(-c2ccc(CN3CC4(C3)CN(C3CCOCC3)C4)cc2)nc2c1nc(-c1ccc(S(C)(=O)=O)cc1)n2C1CC1` [Example 5, 3-cyclopropyl-7-methyl-2-(4-(methylsulfonyl)phenyl)-5-(4-((6-(tetrahydro-2H-pyran-4-yl)-2,6-diazaspiro[3.3]heptan-2-yl)methyl)phenyl)-3H-imidazo[4,5-b]pyridine], the IC50 was found to be 0.2 µM in assay [1], 0.26 µM in assay [2] and 0.32 µM in assay [3].

In the case of `Cc1cc(C2CCN(C3CCN(C4CCC4)CC3)CC2)nc2c1nc(-c1ccc(S(C)(=O)=O)cc1)n2C` [Example 24, 5-(1′-cyclobutyl-[1,4′-bipiperidin]-4-yl)-3,7-dimethyl-2-(4-(methylsulfonyl)phenyl)-3H-imidazo[4,5-b]pyridine], the IC50 was 5.4 µM in assay [1], over 50 µM in assay [2] and 0.24 µM in assay [3].

For orientation: IC50 means the concentration that gives 50% inhibition.

Values taken from patent US20250177363A1, “SUBSTITUTED IMIDAZOPYRIDINYL COMPOUNDS USEFUL AS INHIBITORS OF TLR9” (Bristol-Myers Squibb Company, priority 2022, published 2025).
